Assays:
[1] = biological target: T1, human A3AR (Homo sapiens, UniProt P0DMS8); format: binding; settings: [^125I]MRS5127 0.2 nM, 2 h room temperature, Cheng-Prusoff
T1 sequence (P0DMS8 1-318): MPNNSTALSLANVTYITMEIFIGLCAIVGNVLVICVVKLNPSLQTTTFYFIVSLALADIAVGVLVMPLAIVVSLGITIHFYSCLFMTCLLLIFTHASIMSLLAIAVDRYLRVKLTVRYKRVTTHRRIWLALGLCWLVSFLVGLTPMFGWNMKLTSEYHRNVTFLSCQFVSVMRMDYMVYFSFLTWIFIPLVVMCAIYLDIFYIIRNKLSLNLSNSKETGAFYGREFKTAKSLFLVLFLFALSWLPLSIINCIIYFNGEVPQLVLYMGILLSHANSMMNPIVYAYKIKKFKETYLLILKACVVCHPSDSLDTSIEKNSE

[2] = biological target: mouse A2AAR (Mus musculus, UniProt Q60613); assay: Competition binding of MRS5127 at mouse A2AAR; settings: [^3H]CGS21680 10 nM, HEK 293 membranes
[3] = biological target: hA3; settings: read-out: affinity; hA3 ref 25, 26; cited from earlier work
[4] = biological target: T2, rabbit A3AR (Oryctolagus cuniculus, UniProt O02667); assay: cAMP accumulation assay, HEK 293 cells expressing rabbit A3AR; format: cell-based; settings: forskolin 10 μM, 15 min, Ro 20-1724 20 μM
T2 sequence (O02667 1-319): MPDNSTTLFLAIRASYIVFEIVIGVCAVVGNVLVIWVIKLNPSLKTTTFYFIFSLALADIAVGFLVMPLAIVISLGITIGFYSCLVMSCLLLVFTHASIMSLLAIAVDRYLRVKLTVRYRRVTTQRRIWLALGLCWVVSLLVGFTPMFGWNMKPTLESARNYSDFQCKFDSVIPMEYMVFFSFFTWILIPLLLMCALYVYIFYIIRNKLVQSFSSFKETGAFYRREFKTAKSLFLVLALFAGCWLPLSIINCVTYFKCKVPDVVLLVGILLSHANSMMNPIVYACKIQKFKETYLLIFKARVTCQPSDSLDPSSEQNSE

[5] = biological target: T3, mA1AR (Mus musculus, UniProt Q60612); assay: Competition binding of MRS5127 at mouse A1AR
T3 sequence (Q60612 1-326): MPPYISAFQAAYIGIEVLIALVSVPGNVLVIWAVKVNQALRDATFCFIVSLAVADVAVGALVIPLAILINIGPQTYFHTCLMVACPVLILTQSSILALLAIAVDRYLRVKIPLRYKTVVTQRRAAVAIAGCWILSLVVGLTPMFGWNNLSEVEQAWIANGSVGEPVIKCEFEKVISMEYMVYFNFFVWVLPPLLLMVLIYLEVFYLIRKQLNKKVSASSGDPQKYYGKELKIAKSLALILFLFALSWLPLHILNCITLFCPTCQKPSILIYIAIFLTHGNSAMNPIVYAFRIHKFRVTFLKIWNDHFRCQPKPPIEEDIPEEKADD

[6] = biological target: T4, mouse A3AR (Mus musculus, UniProt Q61618); assay: cAMP accumulation assay, HEK 293 cells expressing mouse A3AR; format: cell-based; settings: forskolin 10 μM, 15 min, Ro 20-1724 20 μM
T4 sequence (Q61618 1-319): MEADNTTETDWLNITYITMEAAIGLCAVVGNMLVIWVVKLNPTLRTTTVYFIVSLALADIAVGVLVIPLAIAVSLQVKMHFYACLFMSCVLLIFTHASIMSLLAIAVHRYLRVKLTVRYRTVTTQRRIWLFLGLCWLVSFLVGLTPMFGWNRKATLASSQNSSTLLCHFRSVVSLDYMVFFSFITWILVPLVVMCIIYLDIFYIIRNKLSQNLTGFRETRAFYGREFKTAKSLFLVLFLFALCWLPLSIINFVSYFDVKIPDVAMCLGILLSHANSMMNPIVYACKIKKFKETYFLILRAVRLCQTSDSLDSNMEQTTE

[7] = tested on: hA3AR; settings: cited from earlier work
[8] = biological target: T5, mouse A2BAR (Mus musculus, UniProt Q60614); assay: Competition binding of MRS5127 at mouse A2BAR; settings: [^3H]MRS1754 2 nM, HEK 293 membranes
T5 sequence (Q60614 1-332): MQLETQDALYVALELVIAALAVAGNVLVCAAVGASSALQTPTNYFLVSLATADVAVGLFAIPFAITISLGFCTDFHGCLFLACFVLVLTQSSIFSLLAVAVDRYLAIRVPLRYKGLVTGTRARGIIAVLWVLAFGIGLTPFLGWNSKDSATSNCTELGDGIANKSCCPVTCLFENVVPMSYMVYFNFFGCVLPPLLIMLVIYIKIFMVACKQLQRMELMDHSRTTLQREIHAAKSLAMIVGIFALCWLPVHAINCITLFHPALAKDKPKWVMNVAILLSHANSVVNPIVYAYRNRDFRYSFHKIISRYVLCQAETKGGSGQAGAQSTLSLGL

[9] = tested on: hA3AR; settings: CHO cell membranes expressing hA3AR ref 25; cited from earlier work
[10] = biological target: T6, dog A3AR (Canis lupus familiaris, UniProt Q28309); assay: cAMP accumulation assay, HEK 293 cells expressing dog A3AR; format: cell-based; settings: forskolin 10 μM, 15 min, Ro 20-1724 20 μM
T6 sequence (Q28309 1-314): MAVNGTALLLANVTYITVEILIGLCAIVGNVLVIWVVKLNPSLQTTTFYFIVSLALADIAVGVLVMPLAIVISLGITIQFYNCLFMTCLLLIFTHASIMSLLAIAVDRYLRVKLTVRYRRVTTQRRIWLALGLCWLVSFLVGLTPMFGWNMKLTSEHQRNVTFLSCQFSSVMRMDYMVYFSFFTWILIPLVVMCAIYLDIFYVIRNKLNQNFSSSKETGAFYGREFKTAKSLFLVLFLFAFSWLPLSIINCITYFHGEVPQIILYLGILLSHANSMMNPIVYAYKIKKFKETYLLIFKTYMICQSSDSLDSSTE

Chain of mouse A2AAR (Q60613 whole entry): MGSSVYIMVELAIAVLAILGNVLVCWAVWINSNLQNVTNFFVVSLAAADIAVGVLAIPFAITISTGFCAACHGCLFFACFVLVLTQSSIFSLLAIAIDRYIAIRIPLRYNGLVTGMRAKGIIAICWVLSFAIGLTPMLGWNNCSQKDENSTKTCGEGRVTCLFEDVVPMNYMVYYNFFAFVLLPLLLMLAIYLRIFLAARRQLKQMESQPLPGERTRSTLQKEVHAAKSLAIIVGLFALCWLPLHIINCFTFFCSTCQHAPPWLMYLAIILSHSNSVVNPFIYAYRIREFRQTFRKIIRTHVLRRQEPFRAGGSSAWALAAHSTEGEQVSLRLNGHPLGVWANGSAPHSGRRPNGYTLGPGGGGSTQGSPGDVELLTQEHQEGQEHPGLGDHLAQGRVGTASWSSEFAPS

SMILES | Ki [1] | binding to mouse A2AAR [2] | Ki [3] | EC50 [4] | affinity for mA1AR lower compared to the mA3AR ([5]; mA1AR versus mA3AR) | Ki ([5]; read-out: affinity (Ki value), [^125I]I-AB-MECA 0.3 nM, HEK 293 membranes) | EC50 [6] | efficacy in comparison to NECA ([7]; cAMP accumulation, human receptors ref 26) | efficacy compared to the full agonist NECA ([7]; cAMP, transfected cells ref 26) | binding to mouse A2BAR [8] | functional character by Schild analysis of [^35S]GTPγS binding [9] | EC50 [10]
CCCOC(=O)c1c(-c2ccccc2)nc(CC)c(C(=O)SCC)c1CCC [MRS1523, 5-propyl-2-ethyl-4-propyl-3-(ethylsulfanylcarbonyl)-6-phenylpyridine-5-carboxylate] | 246 ± 66 nM |  |  |  |  |  |  |  |  |  |  | 
O[C@@H]1[C@H](O)[C@@H]2C[C@@H]2[C@H]1n1cnc2c(NCc3cccc(I)c3)nc(Cl)nc21 [MRS5127, (1′R,2′R,3′S,4′R,5′S)-4′-[2-chloro-6-(3-iodobenzylamino)-purine]-2′,3′-O-dihydroxybicyclo-[3.1.0]hexane] |  | did not bind | 1.44 ± 0.6 nM | 1.53 ± 0.59 nM | ~ 30 fold | 140 ± 26 nM | 1.34 ± 0.07 nM | roughly half efficacy | 45% | did not bind | antagonist | 2.79 ± 0.41 nM
